Laboratory results from patent US20260365670A1, “EGFR INHIBITORS AND USES THEREOF” (DIZAL (JIANGSU) PHARMACEUTICAL CO., LTD., priority 2022, published 2026).
Read-outs that look alike come from different tables or passages of the source.

Experiments:
EGFR wild type = biological target: T1, EGFR wild type (Homo sapiens, UniProt P00533); assay: Inhibition of EGFR wild type biochemical enzymatic activity (HTRF); details: 1 mM ATP
T1 construct: purchased Carna Bio
In short: (§1)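 Recombinant kinases phosphorylated 1 μM biotinylated TK substrate with 1 mM ATP in buffer with 5 mM MgCl2, 1 mM MnCl2, 0.01% CHAPS, 1 mM DTT, 0.5% DMSO. Reaction ran 1 h at room temperature, stopped with EDTA-containing detection mix. HTRF 665/615 nm ratio gave IC50 via four-parameter logistic fit.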

EGFR L858R = biological target: T2, EGFR L858R (Homo sapiens, UniProt P00533, L858R); assay: Inhibition of EGFR L858R biochemical enzymatic activity (HTRF); details: 1 mM ATP
T2 construct: purchased Carna Bio
T2 sequence (P00533 25-1210 L858R): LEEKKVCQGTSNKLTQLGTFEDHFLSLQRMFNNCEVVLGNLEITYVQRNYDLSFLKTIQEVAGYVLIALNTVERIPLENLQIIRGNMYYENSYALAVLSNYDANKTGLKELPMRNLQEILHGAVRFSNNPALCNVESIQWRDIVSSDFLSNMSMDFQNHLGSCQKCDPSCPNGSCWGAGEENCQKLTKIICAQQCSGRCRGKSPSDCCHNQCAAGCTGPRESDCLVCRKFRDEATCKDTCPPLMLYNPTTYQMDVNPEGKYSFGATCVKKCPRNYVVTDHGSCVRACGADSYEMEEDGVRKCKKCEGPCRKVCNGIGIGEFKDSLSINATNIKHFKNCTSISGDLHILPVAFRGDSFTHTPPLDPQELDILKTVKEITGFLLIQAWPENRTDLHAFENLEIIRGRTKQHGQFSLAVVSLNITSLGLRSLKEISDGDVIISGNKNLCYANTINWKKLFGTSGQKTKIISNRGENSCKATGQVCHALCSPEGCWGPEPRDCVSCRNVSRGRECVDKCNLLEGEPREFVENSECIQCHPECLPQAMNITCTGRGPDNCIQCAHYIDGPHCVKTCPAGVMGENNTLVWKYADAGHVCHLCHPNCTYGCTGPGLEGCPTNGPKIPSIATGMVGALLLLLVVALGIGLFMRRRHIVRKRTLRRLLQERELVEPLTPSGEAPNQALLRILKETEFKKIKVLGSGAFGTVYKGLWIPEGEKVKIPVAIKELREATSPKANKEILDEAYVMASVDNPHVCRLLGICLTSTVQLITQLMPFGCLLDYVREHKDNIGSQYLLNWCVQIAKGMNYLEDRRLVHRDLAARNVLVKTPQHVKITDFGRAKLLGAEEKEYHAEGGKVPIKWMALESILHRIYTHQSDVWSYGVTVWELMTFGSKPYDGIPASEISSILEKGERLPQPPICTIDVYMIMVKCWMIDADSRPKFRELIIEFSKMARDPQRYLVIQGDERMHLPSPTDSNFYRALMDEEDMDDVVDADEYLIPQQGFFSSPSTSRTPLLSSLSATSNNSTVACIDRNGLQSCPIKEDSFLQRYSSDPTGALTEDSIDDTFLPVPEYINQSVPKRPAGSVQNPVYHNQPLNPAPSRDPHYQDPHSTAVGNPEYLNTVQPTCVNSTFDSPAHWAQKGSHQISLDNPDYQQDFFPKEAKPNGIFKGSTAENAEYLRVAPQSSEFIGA
In short: as §1

EGFR L858R/T790M = biological target: T3, EGFR L858R/T790M (Homo sapiens, UniProt P00533, L858R/T790M); assay: Inhibition of EGFR L858R/T790M biochemical enzymatic activity (HTRF); details: 1 mM ATP
T3 construct: purchased Carna Bio
T3 sequence (P00533 25-1210 T790M/L858R): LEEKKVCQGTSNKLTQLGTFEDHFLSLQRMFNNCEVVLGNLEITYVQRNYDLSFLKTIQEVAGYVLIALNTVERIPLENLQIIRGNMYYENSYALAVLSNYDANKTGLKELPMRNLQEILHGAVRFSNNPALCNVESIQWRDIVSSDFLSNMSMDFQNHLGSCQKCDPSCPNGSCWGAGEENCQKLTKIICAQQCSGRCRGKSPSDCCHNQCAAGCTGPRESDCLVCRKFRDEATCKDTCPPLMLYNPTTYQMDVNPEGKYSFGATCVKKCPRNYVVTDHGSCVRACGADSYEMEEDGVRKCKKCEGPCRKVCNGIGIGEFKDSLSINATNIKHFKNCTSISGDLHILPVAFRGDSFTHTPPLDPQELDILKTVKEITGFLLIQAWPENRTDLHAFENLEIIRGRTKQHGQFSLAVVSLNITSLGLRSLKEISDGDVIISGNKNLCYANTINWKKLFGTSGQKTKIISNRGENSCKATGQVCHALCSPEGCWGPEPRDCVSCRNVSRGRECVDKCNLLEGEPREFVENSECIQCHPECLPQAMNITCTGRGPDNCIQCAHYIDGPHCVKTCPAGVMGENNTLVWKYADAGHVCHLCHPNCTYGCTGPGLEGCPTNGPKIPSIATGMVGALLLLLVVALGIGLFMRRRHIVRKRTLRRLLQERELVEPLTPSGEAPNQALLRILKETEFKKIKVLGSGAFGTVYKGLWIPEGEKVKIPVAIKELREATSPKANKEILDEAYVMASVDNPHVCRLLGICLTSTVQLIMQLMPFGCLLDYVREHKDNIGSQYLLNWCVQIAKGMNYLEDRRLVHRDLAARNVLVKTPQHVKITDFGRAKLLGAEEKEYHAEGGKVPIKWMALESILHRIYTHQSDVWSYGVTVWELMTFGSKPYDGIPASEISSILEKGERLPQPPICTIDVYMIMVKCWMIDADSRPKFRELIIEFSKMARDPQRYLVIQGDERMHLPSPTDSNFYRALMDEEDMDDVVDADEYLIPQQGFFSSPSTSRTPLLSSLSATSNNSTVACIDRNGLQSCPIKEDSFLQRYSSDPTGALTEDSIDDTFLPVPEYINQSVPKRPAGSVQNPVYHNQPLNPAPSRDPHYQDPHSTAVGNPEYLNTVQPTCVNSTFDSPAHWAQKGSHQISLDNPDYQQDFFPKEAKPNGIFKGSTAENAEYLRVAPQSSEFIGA
In short: as §1

EGFR Exon19Del = biological target: T4, EGFR Exon19Del (Homo sapiens, UniProt P00533, DEL746-750); assay: Inhibition of EGFR Exon19Del biochemical enzymatic activity (HTRF); details: read-out: IC50 @Del19
T4 construct: purchased Carna Bio
T4 sequence (P00533 with tags, fused parts or gaps DEL746-750 limits assumed): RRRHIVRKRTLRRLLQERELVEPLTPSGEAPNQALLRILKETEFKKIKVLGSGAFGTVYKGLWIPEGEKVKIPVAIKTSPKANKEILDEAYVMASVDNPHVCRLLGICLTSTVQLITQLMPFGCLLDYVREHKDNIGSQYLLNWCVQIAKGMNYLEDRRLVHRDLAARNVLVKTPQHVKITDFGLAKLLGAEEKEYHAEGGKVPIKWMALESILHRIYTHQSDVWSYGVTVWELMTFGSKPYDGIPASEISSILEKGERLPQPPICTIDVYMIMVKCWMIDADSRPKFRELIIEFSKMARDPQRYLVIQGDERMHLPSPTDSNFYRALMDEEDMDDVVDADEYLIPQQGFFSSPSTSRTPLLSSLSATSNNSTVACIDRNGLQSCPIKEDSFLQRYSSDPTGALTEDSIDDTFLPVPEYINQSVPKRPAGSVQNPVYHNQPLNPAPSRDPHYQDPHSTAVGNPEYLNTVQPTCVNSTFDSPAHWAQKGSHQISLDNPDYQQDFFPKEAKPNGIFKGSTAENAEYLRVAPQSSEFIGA
In short: as §1

EGFR Exon19Del/T790M = biological target: T5, EGFR Exon19Del/T790M (Homo sapiens, UniProt P00533, DEL746-750/T790M); assay: Inhibition of EGFR Exon19Del/T790M biochemical enzymatic activity (HTRF); details: 1 mM ATP
T5 construct: purchased Carna Bio
In short: as §1

EGFR[T790M/C797S/L858R] = biological target: T6, EGFR[T790M/C797S/L858R] (Homo sapiens, UniProt P00533, C797S/L858R/T790M); assay: Inhibition of EGFR[T790M/C797S/L858R] biochemical enzymatic activity (HTRF); details: 1 mM ATP
T6 construct: purchased Carna Bio
In short: as §1

[1] = biological target: T7, EGFR[T790M/C797S/d746-750] (Homo sapiens, UniProt P00533, C797S/DEL746-750/T790M); assay: Inhibition of EGFR[T790M/C797S/d746-750] biochemical enzymatic activity (HTRF)
T7 construct: purchased Carna Bio
In short: as §1

EGFR (d746-750 C797S) = biological target: T8, EGFR (d746-750 C797S) (Homo sapiens, UniProt P00533, C797S/DEL746-750); assay: Inhibition of EGFR (d746-750 C797S) biochemical enzymatic activity (HTRF); details: 1 mM ATP
T8 construct: purchased signalchem
T8 sequence (P00533 with tags, fused parts or gaps DEL746-750/C797S limits assumed): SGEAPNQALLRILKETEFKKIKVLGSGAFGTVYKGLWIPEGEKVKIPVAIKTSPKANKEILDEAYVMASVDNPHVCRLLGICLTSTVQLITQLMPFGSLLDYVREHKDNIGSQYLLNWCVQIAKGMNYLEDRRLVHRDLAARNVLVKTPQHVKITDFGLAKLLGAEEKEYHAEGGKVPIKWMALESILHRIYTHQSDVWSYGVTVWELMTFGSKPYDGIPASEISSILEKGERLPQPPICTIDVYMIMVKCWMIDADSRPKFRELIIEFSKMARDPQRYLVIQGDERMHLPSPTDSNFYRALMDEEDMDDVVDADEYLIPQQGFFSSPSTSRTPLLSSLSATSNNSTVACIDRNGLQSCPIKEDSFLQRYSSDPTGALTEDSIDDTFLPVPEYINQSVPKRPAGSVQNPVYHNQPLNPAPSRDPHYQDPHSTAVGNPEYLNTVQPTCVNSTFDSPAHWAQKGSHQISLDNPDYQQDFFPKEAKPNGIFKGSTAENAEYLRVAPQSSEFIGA
In short: as §1

EGFR (C797S L858R) = biological target: T9, EGFR (C797S L858R) (Homo sapiens, UniProt P00533, C797S/L858R); assay: Inhibition of EGFR (C797S L858R) biochemical enzymatic activity (HTRF); details: 1 mM ATP
T9 construct: purchased signalchem
T9 sequence (P00533 25-1210 C797S/L858R): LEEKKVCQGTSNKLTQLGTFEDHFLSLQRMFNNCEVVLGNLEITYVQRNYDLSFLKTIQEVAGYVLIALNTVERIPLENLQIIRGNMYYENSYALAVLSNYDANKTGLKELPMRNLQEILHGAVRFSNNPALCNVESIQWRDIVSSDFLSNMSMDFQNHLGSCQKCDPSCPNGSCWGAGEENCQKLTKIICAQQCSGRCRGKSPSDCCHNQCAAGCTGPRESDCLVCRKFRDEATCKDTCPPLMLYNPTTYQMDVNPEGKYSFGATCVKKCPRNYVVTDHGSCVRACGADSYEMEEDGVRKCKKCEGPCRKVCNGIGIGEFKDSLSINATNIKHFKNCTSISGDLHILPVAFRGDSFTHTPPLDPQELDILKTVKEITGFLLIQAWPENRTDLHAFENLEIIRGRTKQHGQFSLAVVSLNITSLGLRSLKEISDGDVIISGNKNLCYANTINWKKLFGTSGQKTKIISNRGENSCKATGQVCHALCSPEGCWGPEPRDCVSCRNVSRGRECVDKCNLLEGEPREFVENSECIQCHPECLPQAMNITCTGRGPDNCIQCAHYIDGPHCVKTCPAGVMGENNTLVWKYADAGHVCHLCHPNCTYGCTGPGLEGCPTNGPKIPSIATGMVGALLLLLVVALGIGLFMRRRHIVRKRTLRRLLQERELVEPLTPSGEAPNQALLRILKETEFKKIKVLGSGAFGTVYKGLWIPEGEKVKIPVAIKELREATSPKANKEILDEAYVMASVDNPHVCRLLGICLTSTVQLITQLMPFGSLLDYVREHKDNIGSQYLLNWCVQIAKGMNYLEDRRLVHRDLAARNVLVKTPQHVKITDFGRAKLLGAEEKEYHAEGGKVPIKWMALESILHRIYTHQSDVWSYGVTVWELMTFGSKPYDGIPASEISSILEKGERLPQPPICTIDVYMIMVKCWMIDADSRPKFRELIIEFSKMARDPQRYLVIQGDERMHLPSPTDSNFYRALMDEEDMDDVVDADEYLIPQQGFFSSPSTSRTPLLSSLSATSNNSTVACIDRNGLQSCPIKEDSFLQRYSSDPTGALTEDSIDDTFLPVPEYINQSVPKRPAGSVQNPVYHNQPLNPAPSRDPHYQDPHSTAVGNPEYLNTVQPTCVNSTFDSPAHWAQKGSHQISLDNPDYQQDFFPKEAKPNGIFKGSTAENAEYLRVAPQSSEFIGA
In short: as §1

[2] = test system: Ba/F3 cells expressing EGFR mutations; assay: Cell proliferation assay, Ba/F3 cells expressing EGFR mutations (CellTiter-Glo, 72 hours); assay type: cell-based
In short: (§2)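 Cells are exposed to graded compound concentrations after overnight plating, using 500 PC-9 or 5000 Ba/F3 per well. Baseline-subtracted viability is compared with vehicle to give percent proliferation, then GI50.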

PC-9 = assay: Cell proliferation assay, PC-9 cells (CellTiter-Glo, 72 hours); assay type: cell-based; details: PC9 cells
In short: as §2

[3] = EGFR WT, 1 h, room temperature, read-out: IC50 (nM) @WT
[4] = 1 h, room temperature, read-out: IC50 (nM) @L858R
[5] = EGFR L858R-T790M, 1 h, room temperature, read-out: IC50 (nM) @L858R-T790M
[6] = EGFR Del19, 1 mM ATP, 1 h, room temperature
[7] = EGFR Del19-T790M, 1 h, room temperature, read-out: IC50 (nM) @Del19-T790M
[8] = EGFR T790M-C797S-L858R, 1 h, room temperature, read-out: IC50 (nM) @T790M- C797S - L858R
[9] = EGFR T790M-C797S-Del19, 1 mM ATP, 1 h, room temperature, read-out: IC50 (nM) @T790M - C797S - Del19
[10] = EGFR Del19-C797S, 1 h, room temperature, read-out: IC50 (nM) @Del19-C797S
[11] = EGFR L858-C797S, 1 h, room temperature, read-out: IC50 (nM) @L858-C797S
[12] = BaF3 cells, EGFR DEL19-C797S, CellTiter-Glo, read-out: DEL19-C797S/BaF3 GI50
[13] = BaF3 cells, EGFR DEL19-T790-C797S, CellTiter-Glo, read-out: DEL19-T790-C797S/BaF3 GI50
[14] = BaF3 cells, EGFR L858R, CellTiter-Glo, read-out: L858R/BaF3 GI50
[15] = BaF3 cells, EGFR L858R-C797S, CellTiter-Glo, read-out: L858R-C797S/BaF3 GI50
[16] = BaF3 cells, EGFR L858R-T790-C797S, CellTiter-Glo, read-out: L858R-T790-C797S/BaF3 GI50
[17] = BaF3 cells, EGFR L858R-T790M, CellTiter-Glo, read-out: L858R-T790M/BaF3 GI50
[18] = EGFR DEL19-T790M, CellTiter-Glo, read-out: DEL19-T790M GI50
[19] = CellTiter-Glo, read-out: PC9 GI50

Structure (SMILES) | IC50 (EGFR wild type; [3]) [nM] | IC50 (EGFR L858R; [4]) [nM] | IC50 (EGFR L858R/T790M; [5]) [nM] | IC50 (EGFR Exon19Del; [6]) [nM] | IC50 (EGFR Exon19Del/T790M; [7]) [nM] | IC50 (EGFR[T790M/C797S/L858R]; [8]) [nM] | IC50 [1, 9] [nM] | IC50 (EGFR (d746-750 C797S); [10]) [nM] | IC50 (EGFR (C797S L858R); [11]) [nM] | GI50 [2, 12] [nM] | GI50 [2, 13] [nM] | GI50 [2, 14] [nM] | GI50 [2, 15] [nM] | GI50 [2, 16] [nM] | GI50 [2, 17] [nM] | GI50 [2, 18] [nM] | GI50 (PC-9; [19]) [nM] | other results
CN1CCN(C2CCN(c3ccc4nc5n(c4c3)C34CCC(CN(CCOc6c(cnn6C)-c6cc(cn(C)c6=O)C(=O)N5)C3)C4)C2)CC1 (single isomer, unassigned) [Example A80A2, 15,21-Dimethyl-5-[3-(4-methylpiperazin-1-yl)pyrrolidin-1-yl]-23-oxa-2,9,11,15,20,21,26-heptaazaheptacyclo[24.4.1.1^{1,28}.1^{13,17}.0^{2,10}.0^{3,8}.0^{18,22}]tritriaconta-3,5,7,9,13,17(33),18(22),19-octaene-12,16-dione] | > 5000 | > 5000 | > 5000 | 490 | > 5000 | > 5000 | 2190 | 530 | > 5000 | 57 | 170 | 100 | 125 | 126 | 315 | 136 | 381 | –
Cc1cc2cc(n1)-c1cnn(C)c1OCCCCCn1c(nc3ccc4c(c31)CN(C1COC1)CC4)NC2=O [Example B18, 5,30-dimethyl-17-(oxetan-3-yl)-7-oxa-4,5,13,17,24,26,31-heptaazahexacyclo[26.3.1.0^{2,6}.0^{13,25}.0^{14,23}.0^{15,20}]dotriaconta-1(31),2(6),3,14,20,22,24,28(32),29-nonaen-27-one] | – | – | – | – | – | – | – | – | – | – | – | – | – | – | – | – | – | IC50 (EGFR wild type; EGFR wild type, 1 h at room temperature, read-out: IC50 @WT): > 5000 nM; IC50 (EGFR L858R; 1 h at room temperature, read-out: IC50 @L858R): > 5000 nM; IC50 (EGFR L858R/T790M; EGFR L858R/T790M, 1 h at room temperature, read-out: IC50 @L858R-T790M): > 5000 nM; IC50 (EGFR Exon19Del; EGFR Exon19Del, 1 mM ATP, 1 h at room temperature): 942 nM; IC50 (EGFR Exon19Del/T790M; EGFR Exon19Del/T790M, 1 h at room temperature, read-out: IC50 @Del19-T790M): 33 nM; IC50 (EGFR[T790M/C797S/L858R]; EGFR[T790M/C797S/L858R], 1 h at room temperature, read-out: IC50 @T790M- C797S - L858R): 1990 nM; IC50 ([1]; EGFR[T790M/C797S/d746-750], 1 mM ATP, 1 h at room temperature, read-out: IC50 @T790M - C797S - Del19): 31 nM; IC50 (EGFR (d746-750 C797S); EGFR (d746-750 C797S), 1 h at room temperature, read-out: IC50 @Del19-C797S): > 500 nM; IC50 (EGFR (C797S L858R); EGFR (C797S L858R), 1 h at room temperature, read-out: IC50 @L858-C797S): > 5000 nM; GI50 ([2]; Mus musculus, BaF3, 72 h, BaF3 cells, EGFR DEL19 - C797S, read-out: GI50 DEL19 - C797S/BaF3): 86 nM; GI50 ([2]; Mus musculus, BaF3, 72 h, BaF3 cells, EGFR DEL19 - T790-C797S, read-out: GI50 DEL19 - T790-C797S/BaF3): 32 nM; GI50 ([2]; Mus musculus, BaF3, 72 h, BaF3 cells, EGFR L858R - C797S, read-out: GI50 L858R - C797S/BaF3): 2700 nM; GI50 ([2]; Mus musculus, BaF3, 72 h, BaF3 cells, EGFR L858R - T790-C797S, read-out: GI50 L858R - T790-C797S/BaF3): 24 nM; GI50 ([2]; Mus musculus, BaF3, 72 h, BaF3 cells, EGFR L858R - T790M, read-out: GI50 L858R - T790M/BaF3): 96 nM; GI50 ([2]; Mus musculus, BaF3, 72 h, BaF3 cells, EGFR L858R, read-out: GI50 L858R/BaF3): 432 nM; GI50 ([2]; Mus musculus, BaF3, 72 h, EGFR DEL19 - T790M, read-out: GI50 DEL19 - T790M): 12 nM; GI50 (PC-9; Homo sapiens, PC-9, 72 h, read-out: GI50 PC9): 122 nM
CN1C2CC1CN(c1ccc3nc4n(c3c1)C13CCC(CN(CCOc5c(cnn5C)-c5cc(cn(C)c5=O)C(=O)N4)C1)C3)C2 (single isomer, unassigned) [Example A98A] | > 5000 | 1270 | > 5000 | 235 | 3410 | > 5000 | 2080 | 391 | 3370 | 95 | 340 | 47 | 173 | 49 | 343 | 171 | 297 | –
